ChEMBL document CHEMBL1201862, “PubChem BioAssay data set” (2004)
Active and inactive are the calls of the source.

How the values were obtained:
[1] = biological target: Glyceraldehyde-3-phosphate dehydrogenase (Homo sapiens, UniProt P04406)
Bcl-2-related protein A1 [2] = biological target: T1, Bcl-2-related protein A1 (Mus musculus, UniProt Q07440); test: Bfl-1 binding inhibitors, SAR follow-up, biochemical, fluorescence polarization (AID 1070)
T1 sequence (Q07440 whole entry): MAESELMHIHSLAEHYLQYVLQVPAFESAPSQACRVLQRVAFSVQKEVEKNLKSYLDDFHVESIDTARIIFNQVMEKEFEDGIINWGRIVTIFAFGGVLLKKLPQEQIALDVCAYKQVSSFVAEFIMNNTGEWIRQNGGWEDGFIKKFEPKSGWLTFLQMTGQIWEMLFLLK

Bcl-2-related protein A1 [3] = biological target: T1, Bcl-2-related protein A1; test: Bfl-1 inhibitors blocking BH3 peptide binding, confirmation, biochemical, TR-FRET, mouse Bfl-1 (AID 621);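 further: TR-FRET binding of GST-Bfl-1 to FITC-labelled Bid peptide via terbium antibody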
H4 = test: Luminescence Cell-Based Dose Response HTS to Identify Activators of 5'UTR Stem-Loop Driven Prion Protein mRNA Translation in H4 Neuroglioblastoma Cells. [Related pubchem assays: 1829 (Project Summary), 1814 (Primary HTS)]; assay type: functional; details: Homo sapiens
[4] = Luminescence Cell-Based Dose Response to Identify Activators of 5'UTR Stem-Loop Driven Prion Protein mRNA Translation in H4-C Neuroglioblastoma Cells. [Related pubchem assays: 1829 (Project Summary), 1814 (Primary HTS)]; assay type: functional
Cytochrome P450 2C19 = Cytochrome P450 2C19 (Homo sapiens, UniProt P33261); test: Cytochrome panel assay with activity outcomes. Panel member name: p450-cyp2c19 Compounds with AC50 equal or less than 10 uM are considered active; assay type: functional; details: read-out: AC50
Estrogen receptor [5] = biological target: T2, Estrogen receptor (Homo sapiens, UniProt P03372);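 further: potency for inhibiting coactivator peptide recruitment to the receptor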
T2 sequence (P03372 whole entry): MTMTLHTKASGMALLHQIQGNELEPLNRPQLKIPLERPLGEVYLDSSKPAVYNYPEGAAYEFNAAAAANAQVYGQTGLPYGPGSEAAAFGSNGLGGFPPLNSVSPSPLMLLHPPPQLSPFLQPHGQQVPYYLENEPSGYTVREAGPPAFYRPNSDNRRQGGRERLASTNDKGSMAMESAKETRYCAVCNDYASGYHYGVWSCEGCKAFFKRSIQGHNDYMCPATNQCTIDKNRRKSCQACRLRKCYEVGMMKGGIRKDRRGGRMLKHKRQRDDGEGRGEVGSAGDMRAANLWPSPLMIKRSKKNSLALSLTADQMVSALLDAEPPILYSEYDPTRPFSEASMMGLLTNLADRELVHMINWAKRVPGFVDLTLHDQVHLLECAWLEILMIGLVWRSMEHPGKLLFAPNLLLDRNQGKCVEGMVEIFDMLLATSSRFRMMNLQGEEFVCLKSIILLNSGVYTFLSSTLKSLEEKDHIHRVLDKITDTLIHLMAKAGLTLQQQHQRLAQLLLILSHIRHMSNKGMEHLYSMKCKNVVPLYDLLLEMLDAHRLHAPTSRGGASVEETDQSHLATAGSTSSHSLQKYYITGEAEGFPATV

Cytochrome P450 1A2 = biological target: T3, Cytochrome P450 1A2 (Homo sapiens, UniProt P05177);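 further: PubChem cytochrome P450 panel assay, CYP1A2 panel member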
T3 sequence (P05177 whole entry): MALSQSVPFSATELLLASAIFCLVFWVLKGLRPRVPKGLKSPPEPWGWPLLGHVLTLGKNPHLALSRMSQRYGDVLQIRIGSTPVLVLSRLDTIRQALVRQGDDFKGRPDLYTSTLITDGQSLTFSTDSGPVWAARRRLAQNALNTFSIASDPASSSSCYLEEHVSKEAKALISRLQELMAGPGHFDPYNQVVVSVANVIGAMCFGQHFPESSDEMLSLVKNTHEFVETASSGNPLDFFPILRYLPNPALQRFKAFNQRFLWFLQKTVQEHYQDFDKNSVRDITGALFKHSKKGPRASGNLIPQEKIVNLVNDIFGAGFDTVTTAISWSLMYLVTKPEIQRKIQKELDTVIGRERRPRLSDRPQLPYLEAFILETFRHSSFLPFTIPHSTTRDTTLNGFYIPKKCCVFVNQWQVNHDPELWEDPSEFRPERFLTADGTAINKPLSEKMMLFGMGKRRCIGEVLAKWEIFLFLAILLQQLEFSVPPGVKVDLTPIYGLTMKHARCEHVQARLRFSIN

[6] = Luminescence Cell-Based Dose Response HTS to Identify Activators of Luciferase Translation or Activity in H4 […] Cells. [Related pubchem assays: 1829 (Project Summary), 1814 (Primary HTS)]; assay type: functional
[7] = Luminescence Cell-Based Dose Response to Identify Activators of Luciferase Translation or Activity in H4-C Neuroglioblastoma Cells. [Related pubchem assays: 1829 (Project Summary), 1814 (Primary HTS)]; assay type: functional
[8] = Luminescence Cell-Based Dose Confirmation to Identify Activators of 5'UTR Stem-Loop Driven Alpha-Synuclein mRNA Translation in H4 Neuroglioblastoma Cells. [Related pubchem assays: 1829 (Project Summary), 1814 (Primary HTS)]; assay type: functional
Cytochrome P450 2C9 = Cytochrome P450 2C9 (Homo sapiens, UniProt P11712)
[9] = Luminescence Cell-Based Dose Retest to Confirm Inhibitors of Cancer Stem Cells. [Related pubchem assays (depositor defined):AID2717, AID2721]; assay type: functional; details: Homo sapiens
Estrogen receptor [10] = biological target: T2, Estrogen receptor; test: potentiators of ERα–SRC-1 coactivator binding, dose response, biochemical, TR-FRET, ERα LBD (AID 737)
[11] = biological target: Peroxisome proliferator-activated receptor gamma/Nuclear receptor coactivator 3 (Homo sapiens, UniProt P37231); assay type: functional;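 further: agonist potency for raising coactivator recruitment to the receptor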
[12] = biological target: Peroxisome proliferator-activated receptor gamma/Nuclear receptor coactivator 1 (Homo sapiens, UniProt P37231); assay type: functional;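 further: agonist potency as compounds enhance coactivator SRC-1 recruitment to PPARgamma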
[13] = biological target: Peroxisome proliferator-activated receptor gamma/Nuclear receptor coactivator 2 (Homo sapiens, UniProt P37231); assay type: functional;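 further: agonist potency for raising coactivator recruitment to the receptor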
Streptokinase A = biological target: T4, Streptokinase A (Streptococcus pyogenes serotype M1, UniProt P10520); test: S. pyogenes streptokinase expression inhibitors, potency, dose response, plasminogen activation absorbance, OD405 (AID 1914); assay type: functional, Streptococcus pyogenes M1 GAS;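 further: secreted streptokinase activity via plasminogen activation per viability signal from cell pellet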
T4 sequence (P10520 whole entry): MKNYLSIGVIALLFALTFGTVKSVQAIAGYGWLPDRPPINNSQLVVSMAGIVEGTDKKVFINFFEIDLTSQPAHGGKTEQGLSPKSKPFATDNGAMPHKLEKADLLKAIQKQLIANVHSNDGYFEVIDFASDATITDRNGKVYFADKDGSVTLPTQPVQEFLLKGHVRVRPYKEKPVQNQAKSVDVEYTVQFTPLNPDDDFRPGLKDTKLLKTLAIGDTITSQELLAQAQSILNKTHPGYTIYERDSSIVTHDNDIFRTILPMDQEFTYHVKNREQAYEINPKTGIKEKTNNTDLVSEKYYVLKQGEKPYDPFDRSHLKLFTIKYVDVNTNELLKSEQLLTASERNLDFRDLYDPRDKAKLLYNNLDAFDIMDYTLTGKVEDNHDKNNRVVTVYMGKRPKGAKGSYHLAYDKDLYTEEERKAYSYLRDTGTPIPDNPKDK

[14] = test system: Streptococcus sp. 'group A'; test: growth inhibition of control SK(-) GAS strain, dose response, counter-screen for streptokinase expression inhibitor project, luminescence, kanamycin, BacTiterGlo, confirmation (AID 1900); assay type: functional, organism-based
Streptococcus = test: Group A Streptococcus viability loss, dose response, counter-screen for streptokinase expression inhibitor project, luminescence, BacTiterGlo (AID 1915); assay type: functional, organism-based;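 further: potency for reduction of bacterial viability or growth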
[15] = biological target: Serine/threonine-protein phosphatase PP1-alpha catalytic subunit (Homo sapiens, UniProt P62136); test: PP1 phosphatase inhibitors, dose response, biochemical, fluorescence (AID 2403);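 further: phosphatase turnover of OMFP into fluorescent 3-O-methylfluorescein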
[16] = biological target: Serine/threonine-protein phosphatase (Homo sapiens, UniProt Q9BPW0); test: Counterscreen for inhibitors of PP1: fluorescence-based biochemical high throughput dose response assay to identify inhibitors of Protein Phosphatase 5 (PP5). [Related pubchem assays: 2034 (Summary (PP5 inhibitors)), 1987 (PP5 inhibitors in singlate), 2235 (PP1 inhibitors in singlate)]
[17] = growth suppression of PTEN-null colon cells, dose response, cell-based, HCT116 PTEN knockout (AID 1047); assay type: functional;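 further: HCT116 colon tumor cells with PTEN knocked out; cells exposed to compound for 60 hours before readout; potency for loss of cell viability measured by luminescence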
[18] = growth suppression of beta-catenin-knockout colon cells, dose response, cell-based, HCT116, human colon tumor (AID 1045); assay type: functional;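 further: HCT116 colon tumor cells with beta catenin knocked out; cells exposed to compound for 60 hours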
[19] = inhibitors of Bluetongue virus cytopathic effect, confirmation, arbovirus, BSR cells (AID 1250); assay type: functional;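 further: protection from viral cytopathic effect measured as cell viability by ATP luminescence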
[20] = HEp-2 cell cytotoxicity, dose response, cytotoxicity control for RSV inhibitor project, HTS (AID 2410); assay type: functional; details: human respiratory syncytial virus
[21] = M. tuberculosis H37Rv growth inhibitors, H37Rv strain (AID 1626); assay type: functional
[22] = biological target: Neuropeptide Y receptor type 1 (Homo sapiens, UniProt P25929); assay type: functional;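 further: HEK293 cells with a CNG channel challenged with NPY then isoproterenol; potency as antagonist that reverses NPY suppression of cAMP signal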
[23] = biological target: Neuropeptide Y receptor type 2 (Homo sapiens, UniProt P49146); assay type: functional, cell-based;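 further: HEK293 cells expressing the receptor and a CNG channel; stimulus was NPY near EC95 followed by isoproterenol to raise cAMP; antagonist potency measured as restoring cAMP signal that NPY suppresses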
[24] = biological target: T5, Oxysterols receptor LXR-beta (Homo sapiens, UniProt P55055); assay type: functional, cell-based;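 further: Cell-based luminescence dose-response assay of agonist activity at LXR, run as a confirmatory counterscreen to a daf-12 agonist screen; agonist potency from rising luciferase signal of a Gal4-LXR reporter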
T5 sequence (P55055 whole entry): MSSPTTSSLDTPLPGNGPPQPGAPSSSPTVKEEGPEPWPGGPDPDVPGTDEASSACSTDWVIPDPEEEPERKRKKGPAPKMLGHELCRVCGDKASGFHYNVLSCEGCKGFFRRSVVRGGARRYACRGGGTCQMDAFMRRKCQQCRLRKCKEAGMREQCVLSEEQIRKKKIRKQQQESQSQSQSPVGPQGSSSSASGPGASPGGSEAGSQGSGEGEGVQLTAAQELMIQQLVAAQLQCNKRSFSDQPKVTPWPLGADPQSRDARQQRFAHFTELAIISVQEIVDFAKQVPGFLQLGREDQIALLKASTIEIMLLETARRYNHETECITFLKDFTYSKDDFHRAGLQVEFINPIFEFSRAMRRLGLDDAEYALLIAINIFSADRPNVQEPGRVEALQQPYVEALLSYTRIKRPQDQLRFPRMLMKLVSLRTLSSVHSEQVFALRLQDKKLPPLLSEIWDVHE

[25] = biological target: T5, Oxysterols receptor LXR-beta; test: LXR agonists, Gal4 luciferase reporter, dose response, counter-screen for ssDAF-12 agonist project, cell-based, luminescence, HEK293, S. stercoralis campaign (AID 720737); assay type: functional; details: read-out: IC50 (the source's name)
[26] = biological target: G2/mitotic-specific cyclin-B1 (Homo sapiens, UniProt P14635); test: Counterscreen assay for inhibitors of Wee1 degradation: dose response cell-based assay to identify inhibitors of cyclin B degradation. [Related pubchem assays: 1410, 1321 ]; assay type: functional
[27] = Luminescence-based cell-based high throughput dose response assay to identify activators of the DAF-12 from the parasite S. stercoralis (ssDAF-12).; assay type: functional
Wee1-like protein kinase = Wee1-like protein kinase (Homo sapiens, UniProt P30291); test: Dose Response Cell-based Assay for Inhibitors of Wee1 Degradation. [Related pubchem assays: 1410, 1321 ]; assay type: functional
Vero [28] = test: Vero E6 cell cytotoxicity, SAR follow-up, cytotoxicity control for West Nile virus antiviral project, synthesized analogs (AID 2244); assay type: functional; details: Chlorocebus sabaeus
Vero [29] = test: cytotoxicity of synthesized analogs in Vero cells, SAR follow-up, cytotoxicity control for West Nile virus antiviral project, cell-based, set II (AID 2402); assay type: functional; details: Chlorocebus sabaeus
Vero [30] = test: cytotoxicity of synthesized analogs in Vero 76, SAR follow-up, cytotoxicity control for West Nile virus antiviral project, Vero 76 cells (AID 2414); assay type: functional; details: Chlorocebus sabaeus
[31] = A Cell Based Assay for the Identification of Probe candidate Compounds with Anti- Venezuelan Equine Encephalitis virus. [Related pubchem assays: 2409, 2419, 1621, 2238, 2405, 2024, 2065, 2402, 2414, 1635, 1650, 2244 ]; assay type: functional

Chain of Serine/threonine-protein phosphatase PP1-alpha catalytic subunit (P62136 whole entry): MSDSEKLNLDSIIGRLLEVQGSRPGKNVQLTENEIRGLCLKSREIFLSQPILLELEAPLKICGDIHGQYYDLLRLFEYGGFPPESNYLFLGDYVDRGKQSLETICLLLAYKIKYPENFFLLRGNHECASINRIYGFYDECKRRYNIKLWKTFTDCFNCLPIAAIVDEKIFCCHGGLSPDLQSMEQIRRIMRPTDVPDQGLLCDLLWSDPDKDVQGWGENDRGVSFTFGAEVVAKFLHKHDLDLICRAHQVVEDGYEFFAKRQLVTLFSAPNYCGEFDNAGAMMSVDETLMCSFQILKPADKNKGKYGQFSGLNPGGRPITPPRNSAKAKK
Chain of Cytochrome P450 2C19 (P33261 whole entry): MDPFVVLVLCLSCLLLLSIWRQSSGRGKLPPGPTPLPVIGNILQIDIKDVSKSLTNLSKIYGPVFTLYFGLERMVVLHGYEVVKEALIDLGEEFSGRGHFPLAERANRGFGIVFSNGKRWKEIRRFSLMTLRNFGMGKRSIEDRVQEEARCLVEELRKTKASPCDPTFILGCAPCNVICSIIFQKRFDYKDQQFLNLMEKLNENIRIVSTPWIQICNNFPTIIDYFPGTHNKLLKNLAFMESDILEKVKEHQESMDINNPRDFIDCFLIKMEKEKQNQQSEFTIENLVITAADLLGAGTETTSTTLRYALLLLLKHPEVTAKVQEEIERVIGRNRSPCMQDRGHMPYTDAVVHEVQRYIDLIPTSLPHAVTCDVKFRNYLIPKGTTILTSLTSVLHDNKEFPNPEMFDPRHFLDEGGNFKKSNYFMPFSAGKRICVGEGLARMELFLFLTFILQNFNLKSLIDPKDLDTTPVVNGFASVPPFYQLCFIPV
Chain of Neuropeptide Y receptor type 1 (P25929 whole entry): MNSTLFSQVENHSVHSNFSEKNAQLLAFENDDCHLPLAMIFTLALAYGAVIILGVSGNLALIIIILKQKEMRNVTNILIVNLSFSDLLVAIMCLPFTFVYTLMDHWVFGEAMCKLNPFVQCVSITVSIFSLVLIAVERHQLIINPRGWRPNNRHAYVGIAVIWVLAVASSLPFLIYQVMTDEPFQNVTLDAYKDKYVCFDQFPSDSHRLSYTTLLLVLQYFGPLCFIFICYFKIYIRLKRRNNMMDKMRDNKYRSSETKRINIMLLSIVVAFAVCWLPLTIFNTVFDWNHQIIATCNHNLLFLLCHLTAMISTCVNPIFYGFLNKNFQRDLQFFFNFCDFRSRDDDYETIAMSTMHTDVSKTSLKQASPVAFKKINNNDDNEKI
Chain of Wee1-like protein kinase (P30291 whole entry): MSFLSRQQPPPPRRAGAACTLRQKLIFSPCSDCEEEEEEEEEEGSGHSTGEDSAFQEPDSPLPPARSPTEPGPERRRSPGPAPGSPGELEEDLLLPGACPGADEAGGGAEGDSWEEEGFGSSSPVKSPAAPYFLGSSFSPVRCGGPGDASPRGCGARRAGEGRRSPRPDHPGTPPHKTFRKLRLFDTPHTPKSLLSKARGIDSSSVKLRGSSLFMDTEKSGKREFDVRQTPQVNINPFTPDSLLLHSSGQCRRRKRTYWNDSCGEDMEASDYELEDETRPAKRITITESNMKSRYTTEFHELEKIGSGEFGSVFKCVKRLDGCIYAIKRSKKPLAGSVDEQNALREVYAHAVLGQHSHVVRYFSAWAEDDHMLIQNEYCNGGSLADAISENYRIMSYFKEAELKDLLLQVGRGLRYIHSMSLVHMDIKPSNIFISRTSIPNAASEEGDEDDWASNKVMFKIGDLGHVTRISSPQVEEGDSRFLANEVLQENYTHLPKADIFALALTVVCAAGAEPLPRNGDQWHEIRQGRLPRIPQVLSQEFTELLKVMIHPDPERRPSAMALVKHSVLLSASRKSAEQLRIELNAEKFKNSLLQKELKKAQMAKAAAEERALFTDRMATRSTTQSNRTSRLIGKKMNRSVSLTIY
Chain of Neuropeptide Y receptor type 2 (P49146 whole entry, the tested form may be a part): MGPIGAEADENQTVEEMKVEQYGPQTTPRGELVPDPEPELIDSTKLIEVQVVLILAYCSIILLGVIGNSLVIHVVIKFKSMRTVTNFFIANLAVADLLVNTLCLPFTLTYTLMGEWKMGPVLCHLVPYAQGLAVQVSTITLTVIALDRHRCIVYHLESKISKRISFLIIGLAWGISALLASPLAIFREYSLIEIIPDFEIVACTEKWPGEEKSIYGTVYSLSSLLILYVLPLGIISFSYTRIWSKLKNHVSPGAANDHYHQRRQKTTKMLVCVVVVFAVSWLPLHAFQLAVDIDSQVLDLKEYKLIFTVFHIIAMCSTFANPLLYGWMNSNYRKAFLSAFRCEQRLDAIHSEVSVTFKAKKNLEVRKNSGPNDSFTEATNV
Chain of G2/mitotic-specific cyclin-B1 (P14635 whole entry): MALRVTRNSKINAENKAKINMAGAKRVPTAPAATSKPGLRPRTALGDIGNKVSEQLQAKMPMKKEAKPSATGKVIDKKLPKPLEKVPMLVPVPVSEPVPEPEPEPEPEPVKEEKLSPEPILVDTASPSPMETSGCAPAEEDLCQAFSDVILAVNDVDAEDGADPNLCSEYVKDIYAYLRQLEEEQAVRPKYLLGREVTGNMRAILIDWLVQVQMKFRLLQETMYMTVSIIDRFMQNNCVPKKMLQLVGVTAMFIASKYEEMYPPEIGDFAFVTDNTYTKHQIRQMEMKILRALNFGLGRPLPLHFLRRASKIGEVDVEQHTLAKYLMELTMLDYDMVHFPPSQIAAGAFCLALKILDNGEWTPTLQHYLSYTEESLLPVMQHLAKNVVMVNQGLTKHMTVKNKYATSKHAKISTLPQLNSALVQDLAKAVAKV
Chain of Cytochrome P450 2C9 (P11712 whole entry): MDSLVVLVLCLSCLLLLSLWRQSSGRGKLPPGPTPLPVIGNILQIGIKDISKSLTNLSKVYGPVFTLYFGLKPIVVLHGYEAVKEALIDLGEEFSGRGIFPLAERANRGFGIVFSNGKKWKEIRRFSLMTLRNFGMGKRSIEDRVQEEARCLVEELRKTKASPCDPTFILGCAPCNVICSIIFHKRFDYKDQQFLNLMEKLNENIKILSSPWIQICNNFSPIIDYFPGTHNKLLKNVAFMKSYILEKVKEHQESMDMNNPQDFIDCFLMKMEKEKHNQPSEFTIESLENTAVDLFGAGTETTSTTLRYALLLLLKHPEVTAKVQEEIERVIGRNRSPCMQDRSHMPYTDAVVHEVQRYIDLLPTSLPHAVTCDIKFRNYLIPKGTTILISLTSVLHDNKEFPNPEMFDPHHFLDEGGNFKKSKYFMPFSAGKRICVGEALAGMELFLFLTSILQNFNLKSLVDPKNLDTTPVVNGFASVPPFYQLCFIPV
Chain of Serine/threonine-protein phosphatase (Q9BPW0 whole entry): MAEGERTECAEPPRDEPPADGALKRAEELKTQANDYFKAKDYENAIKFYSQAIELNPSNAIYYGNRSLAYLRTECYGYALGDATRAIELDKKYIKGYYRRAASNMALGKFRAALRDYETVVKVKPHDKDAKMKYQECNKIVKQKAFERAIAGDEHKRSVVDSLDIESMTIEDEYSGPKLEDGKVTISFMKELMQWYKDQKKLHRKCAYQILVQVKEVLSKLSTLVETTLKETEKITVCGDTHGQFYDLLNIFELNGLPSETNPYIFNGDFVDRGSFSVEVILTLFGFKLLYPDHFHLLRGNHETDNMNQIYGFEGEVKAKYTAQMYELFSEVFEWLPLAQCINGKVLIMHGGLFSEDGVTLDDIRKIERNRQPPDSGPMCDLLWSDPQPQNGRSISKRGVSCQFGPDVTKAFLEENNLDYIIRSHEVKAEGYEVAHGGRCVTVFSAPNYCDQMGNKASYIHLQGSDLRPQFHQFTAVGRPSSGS
Chain of Glyceraldehyde-3-phosphate dehydrogenase (P04406 whole entry): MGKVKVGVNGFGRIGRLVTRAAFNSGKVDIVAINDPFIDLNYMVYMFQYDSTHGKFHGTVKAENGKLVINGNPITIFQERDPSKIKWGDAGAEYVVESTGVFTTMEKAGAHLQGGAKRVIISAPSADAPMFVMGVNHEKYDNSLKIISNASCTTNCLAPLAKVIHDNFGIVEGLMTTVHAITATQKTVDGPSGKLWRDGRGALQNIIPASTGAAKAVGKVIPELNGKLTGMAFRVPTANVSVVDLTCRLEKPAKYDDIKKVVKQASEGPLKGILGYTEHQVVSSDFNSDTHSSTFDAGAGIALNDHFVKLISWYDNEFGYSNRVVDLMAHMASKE

## O=C1C(Cl)=C(N2CCOCC2)C(=O)N1c1cccc(Cl)c1Cl
[1]
  IC50: > 10 µM (inconclusive)
Bcl-2-related protein A1 [2]
  IC50: 4.05 µM (active)
Bcl-2-related protein A1 [3]
  IC50: 1.52 µM (active)

## CCCc1cc2c(=O)c(-c3ccc4c(c3)OCCO4)coc2cc1OC(=O)c1ccco1
H4
  EC50: > 120 µM (not active)
[4]
  EC50: 0.306 µM (active)
Cytochrome P450 2C19
  AC50: 2.51 µM (inconclusive)
Estrogen receptor [5]
  IC50: > 50 µM (not active)
Cytochrome P450 1A2
  AC50: 2 µM (inconclusive)
[6]
  EC50: < 0.1 µM (active)
[7]
  EC50: 0.376 µM (active)
[8]
  EC50: 0.388 µM (active)
Cytochrome P450 2C9
  AC50: inconclusive
[9]
  AC50: 3.85 µM (active)

## O=C(Cn1ncc2c(=O)oc3ccccc3c21)Nc1nc2ccccc2s1
Estrogen receptor [10]
  EC50: 6.23 µM (active)

## Cc1cc(=O)[nH]c2c1c(C)nn2C1CCCC1
[11]
  EC50: > 79.4 µM (not active)
[12]
  EC50: > 79.4 µM (not active)
[13]
  EC50: > 79.4 µM (not active)

## COc1cnc(-c2ccccn2)nc1Sc1ccc(Cl)cc1
Streptokinase A
  EC50: > 150 µM (not active)
[14]
  EC50: 9.35 µM (active)
Streptococcus
  EC50: 15.3 µM (active)
[15]
  IC50: 6.47 µM (active)
[16]
  IC50: > 67 µM (not active)
[17]
  EC50: 21.6 µM (active)
[18]
  EC50: 18.6 µM (active)

## COc1ccc(-c2nc(NC(=O)c3nnc(O)c4ccccc34)sc2C)cc1
[19]
  IC50: > 100 µM (active)
[20]
  CC50: 40.5 µM (active)

## O=C(COC(=O)/C=C/c1nc2ccccc2s1)Nc1cccc(Cl)c1Cl
[21]
  IC50: > 100 µM (active)

## COc1ccccc1OCCCCN1CCN(C(c2ccccc2)c2ccccc2)CC1
[22]
  IC50: > 35 µM (not active)
[23]
  IC50: > 35 µM (not active)

## CC(=O)Nc1ccc(/C=N/Nc2nc3ccccc3s2)cc1
[24]
  EC50: > 67.5 µM (inactive)
[25]
  EC50: > 67.5 µM (inactive)
cells
  EC50: > 67.5 µM (inactive)
[26]
  EC50: > 49.7 µM (not active)
[27]
  IC50: > 67.5 µM (inactive)
Wee1-like protein kinase
  EC50: > 49.7 µM (not active)

## COc1cccc(C(NC(=O)c2ccccc2)c2ccc3cccnc3c2O)c1 (centres undefined)
Vero [28]
  CC50: 1.94 µM (active)
Vero [29]
  CC50: 2.2 µM (active)
Vero [30]
  CC50: 6.07 µM (active)
[31]
  IC50: 5.63 µM (active)
